Test results as given in patent US20150299120A1, “Spirohydantoin compounds and their use as selective androgen receptor modulators” (NOVARTIS AG, priority 2012, published 2015).
Read-outs that look alike come from different tables or passages of the source.

What was measured:
androgen receptor (AR) = biological target: T1, androgen receptor (AR) (Homo sapiens, UniProt P10275); experiment: Test 1: androgen receptor transcriptional activation (2XIDR17-luciferase) assay in transfected C2C12 cells; format: cell-based; conditions: for Emax: C2C12, C2C12 cells, percentage activity relative to 1 μM DHT, read-out: Biological activity (C2C12 cell) Emax % (converted); for EC50: mouse myoblastic C2C12 cells transfected with full-length AR and 2XIDR17-luciferase; for % Biological activity (C2C12 cell) 100 nM / % Biological activity (C2C12 cell) 5 μM: C2C12 cells, relative to 1 μM DHT; for % Biological activity (C2C12 cell) 100 nM: compound at 100 nM; for % Biological activity (C2C12 cell) 5 μM: compound at 5 μM
T1 construct: transfecting C2C12 cells with a plasmid containing full-length AR; expressed in transfected cells; host or cells: mouse myoblastic C2C12 cells (ATCC CRL-1772), transiently transfected with AR-FL in pcDNA 3.1(+)
T1 sequence (P10275 1-920): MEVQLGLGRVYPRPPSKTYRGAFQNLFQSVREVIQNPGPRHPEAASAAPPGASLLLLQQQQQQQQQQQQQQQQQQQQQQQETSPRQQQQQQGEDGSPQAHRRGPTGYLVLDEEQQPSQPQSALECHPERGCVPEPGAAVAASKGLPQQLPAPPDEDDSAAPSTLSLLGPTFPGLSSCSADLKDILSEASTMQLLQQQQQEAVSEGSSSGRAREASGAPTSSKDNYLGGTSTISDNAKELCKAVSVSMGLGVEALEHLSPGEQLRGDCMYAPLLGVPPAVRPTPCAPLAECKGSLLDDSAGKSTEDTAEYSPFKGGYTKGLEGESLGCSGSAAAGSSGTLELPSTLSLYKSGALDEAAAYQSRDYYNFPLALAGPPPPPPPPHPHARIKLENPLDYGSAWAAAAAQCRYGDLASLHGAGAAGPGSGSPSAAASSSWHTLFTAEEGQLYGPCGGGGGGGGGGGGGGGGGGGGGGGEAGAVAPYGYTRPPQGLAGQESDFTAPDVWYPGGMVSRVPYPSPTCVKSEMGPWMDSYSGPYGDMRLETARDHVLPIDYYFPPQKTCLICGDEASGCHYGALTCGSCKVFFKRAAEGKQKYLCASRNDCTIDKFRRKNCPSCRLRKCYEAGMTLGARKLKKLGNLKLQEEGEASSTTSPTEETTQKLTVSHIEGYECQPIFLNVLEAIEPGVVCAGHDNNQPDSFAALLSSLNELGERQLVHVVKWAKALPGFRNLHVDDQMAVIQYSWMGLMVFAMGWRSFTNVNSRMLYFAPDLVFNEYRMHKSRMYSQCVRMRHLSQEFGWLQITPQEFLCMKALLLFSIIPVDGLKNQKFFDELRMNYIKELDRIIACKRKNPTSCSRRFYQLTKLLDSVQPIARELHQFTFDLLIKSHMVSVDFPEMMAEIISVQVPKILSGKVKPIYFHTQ
Protocol: A suitable assay to determine the ability of a ligand to transcriptionally activate androgen receptor (AR) is carried out using mouse myoblastic C2C12 cells. The assay involves transfecting C2C12 cells with a plasmid containing full-length AR along with an AR response element linked to luciferase (2XIDR17). The luminescence read-out at the end of the assay is measured using Victor 3 and is a direct measure of the transcriptional activity. The assay has been validated using the reference compound, BMS-564929, for which EC50 values have been reported in a similar set-up.
C2C12 cells were obtained from ATCC (Cat #CRL-1772) and maintained in DMEM modified to contain 4 mM L-glutamine, 4.5 g/L glucose, 1 mM sodium pyruvate and 1.5 g/L sodium bicarbonate and 10% FBS.
AR-FL in pcDNA 3.1(+) and 2XIDR17 in pGL4.26 plasmids prepared using Genelute plasmid miniprep kit from Sigma Cat #PLED35 Steadyglow Luciferase assay system Promega Cat #E2550
• C2C12 cells were seeded in a 96-well plate in DMEM (Dulbecco's Modified Eagle Medium) without phenol red and containing 10% CS-FBS (Charcoal-stripped Fetal Bovine Serum) at 8000 cells/well. • The next day, cells were transfected with an equimolar ratio of (Androgen Receptor-Full length) AR-FL and 2XIDR17-Luciferase at a total plasmid concentration of 200 ng/well using Lipofectamine 2000 following manufacturer's protocol. • For the transfection, 83 ng of AR-FL and 117 ng of 2XIDR17-Luciferase were in 12.5 μl of OptiMEM—Mix A. 0.4 μl of Lipofectamine 2000 was added to 12.5 μl of OptiMEM and incubated for 5 min at room temperature—Mix B. The two mixes A and B were mixed and incubated at room temperature for an additional fifteen minutes. An additional 50 μl of OptiMEM was added, gently mixed and this mixture was added to the cells in the 96-well plate. The above quantities are requirements per well of a 96-well plate. Master mixes were made for the entire plate, with proportional quantity of reagents being used. • 5 h after transfection, compounds were added to the wells in DMEM without phenol red and containing 10% CS-FBS, maintaining a final DMSO concentration of 0.5%. A typical dose response curve starts at 10 μM and includes a 7-point, log dilution, done in triplicates. • After overnight incubation with the compounds, 100 ul of working solution of Steadyglow reagent was added to the wells. • The plates were placed in a shaker for 15 min at the end of which the lysate containing luciferase was transferred to a white flat-bottom plate and read under a luminescence setting in Victor. • Background subtracted counts (Luminescence from DMSO control wells is considered the background) are used to calculate percentage activity, expressed relative to activity with 1 μM (Dihydrotestosterone) DHT (at least two sets of triplicates for 1 μM DHT are included per plate).
The EC50 curves for the compounds for 8 compound concentrations were fitted by the respective function using non-linear least-squares regression in Graphpad Prism 4.0 (Graphpad Software, San Diego, Calif., USA).

[1] = read-out: Biological activity (C2C12 cell) EC50

| Structure (SMILES) | melting point | Emax (androgen receptor (AR)) | EC50 (androgen receptor (AR); [1]) | % Biological activity (C2C12 cell) 100 nM (androgen receptor (AR)) | % Biological activity (C2C12 cell) 5 μM (androgen receptor (AR)) | EC50 (androgen receptor (AR); Biological activity (C2C12 cell) EC50 (nM)) |
| --- | --- | --- | --- | --- | --- | --- |
| Cc1c(N2C(=O)N(C)C3(CCCC3O)C2=O)ccc(C#N)c1Cl (centres unmarked) | 188 °C |  |  |  |  |  |
| Cc1c(N2C(=O)OC3(CCCC3O)C2=O)ccc(C#N)c1Cl (centres unmarked) | 150 °C |  |  |  |  |  |
| Cc1c(N2C(=O)N(C)C3(CCCC3O)C2O)ccc(C#N)c1Cl (mixture of isomers) [Example 1.2, 2-chloro-4-(4,6-dihydroxy-1-methyl-2-oxo-1,3-diazaspiro[4.4]nonan-3-yl)-3-methylbenzonitrile] | 179 °C | 79% | 930 nM |  |  |  |
| Cc1c(N2C(=O)N(C)C3(CCCC3=O)C2=O)ccc(C#N)c1Cl (racemic) [Example 1.1, 2-chloro-3-methyl-4-(1-methyl-2,4,6-trioxo-1,3-diazaspiro[4.4]nonan-3-yl)benzonitrile] | 161 °C | 60% | 847 nM |  |  |  |
| Cc1c(N2C(=O)N(C)C3(CCC(F)C3)C2=O)ccc(C#N)c1Cl (single isomer, unassigned) | 162 °C |  |  |  |  |  |
| Cc1c(N2C(=O)N(C)C3(CCCC3CO)C2=O)ccc(C#N)c1Cl (centres unmarked) [Example 1.6, 2-chloro-4-(6-(hydroxymethyl)-1-methyl-2,4-dioxo-1,3-diazaspiro[4.4]nonan-3-yl)-3-methylbenzonitrile] | 157 °C |  |  | 28% | 75% |  |
| Cc1c(N2C(=O)N(C)C3(CCCC3)C2=O)ccc(C#N)c1Cl [Example 3.0, 2-chloro-3-methyl-4-(1-methyl-2,4-dioxo-1,3-diazaspiro[4.4]nonan-3-yl)benzonitrile] | 154 °C | 100% | 0.41 nM |  |  |  |
| COCCN1C(=O)N(c2ccc(C#N)c(Cl)c2C)C(=O)C12CCCC2 [Example 3.1, 2-chloro-4-(1-(2-methoxyethyl)-2,4-dioxo-1,3-diazaspiro[4.4]nonan-3-yl)-3-methylbenzonitrile] | 115 °C | 96% | 105 nM |  |  |  |
| CCN1C(=O)N(c2ccc(C#N)c(Cl)c2C)C(=O)C12CCCC2 [Example 3.2, 2-chloro-4-(1-ethyl-2,4-dioxo-1,3-diazaspiro[4.4]nonan-3-yl)-3-methylbenzonitrile] | 94 °C | 83% | 23.5 nM |  |  |  |
| Cc1c(N2C(=O)N(C)C3(CCC(=O)C3)C2=O)ccc(C#N)c1Cl (centres unmarked) [Example 6.2, 2-chloro-3-methyl-4-(1-methyl-2,4,7-trioxo-1,3-diazaspiro[4.4]nonan-3-yl)benzonitrile] | 219 °C |  |  | 9% | 29% |  |
| Cc1c(N2C(=O)N(C)C3(CCC(F)(F)C3)C2=O)ccc(C#N)c1Cl (centres unmarked) [Example 6.3, 2-chloro-4-(7,7-difluoro-1-methyl-2,4-dioxo-1,3-diazaspiro[4.4]nonan-3-yl)-3-methylbenzonitrile] | 184 °C | 63% | 14.9 nM |  |  |  |
| Cc1c(N2C(=N)C3(CCCC3)N(C)C2=O)ccc(C#N)c1Cl [Example 7.0, 2-chloro-4-(4-imino-1-methyl-2-oxo-1,3-diazaspiro[4.4]nonan-3-yl)-3-methylbenzonitrile] | 199 °C | 53% | 103 nM |  |  |  |
| Cc1c(N2C(=O)N(Cc3ccc(C#N)cc3)C3(CCCC3)C2=O)ccc(C#N)c1Cl [Example 8.0, 2-chloro-4-(1-(4-cyanobenzyl)-2,4-dioxo-1,3-diazaspiro[4.4]nonan-3-yl)-3-methylbenzonitrile] | 195 °C | 106% | 0.48 nM |  |  |  |
| Cc1cc(CN2C(=O)N(c3ccc(C#N)c(Cl)c3C)C(=O)C23CCCC3)no1 [Example 8.1, 2-chloro-3-methyl-4-(1-((5-methylisoxazol-3-yl)methyl)-2,4-dioxo-1,3-diazaspiro[4.4]nonan-3-yl)benzonitrile] | 134 °C | 109% | 6 nM |  |  |  |
| Cc1noc(C)c1CN1C(=O)N(c2ccc(C#N)c(Cl)c2C)C(=O)C12CCCC2 [Example 8.3, 2-chloro-4-(1-((3,5-dimethylisoxazol-4-yl)methyl)-2,4-dioxo-1,3-diazaspiro[4.4]nonan-3-yl)-3-methylbenzonitrile] | 109 °C |  |  | 3% | 19% |  |
| Cc1c(N2C(=O)N(CCF)C3(CCCC3)C2=O)ccc(C#N)c1Cl [Example 9.0, 2-chloro-4-(1-(2-fluoroethyl)-2,4-dioxo-1,3-diazaspiro[4.4]nonan-3-yl)-3-methylbenzonitrile] |  | 99% |  |  |  | 45.4 nM |
| Cc1c(N2C(=O)N(CCCCCC#N)C3(CCCC3)C2=O)ccc(C#N)c1Cl [Example 9.1, 2-chloro-4-(1-(5-cyanopentyl)-2,4-dioxo-1,3-diazaspiro[4.4]nonan-3-yl)-3-methylbenzonitrile] |  | 108% | 8.7 ± 2.1 nM |  |  |  |
| Cc1c(N2C(=O)N(CCOCC#N)C3(CCCC3)C2=O)ccc(C#N)c1Cl [Example 9.3, 2-chloro-4-(1-(2-(cyanomethoxy)ethyl)-2,4-dioxo-1,3-diazaspiro[4.4]nonan-3-yl)-3-methylbenzonitrile] |  | 91% | 19.9 ± 1.7 nM |  |  |  |
| Cc1c(N2C(=O)N(CCCC#N)C3(CCCC3)C2=O)ccc(C#N)c1Cl [Example 9.4, 2-chloro-4-(1-(3-cyanopropyl)-2,4-dioxo-1,3-diazaspiro[4.4]nonan-3-yl)-3-methylbenzonitrile] |  | 90% | 26.5 nM |  |  |  |
| Cc1c(N2C(=O)N(CCCCC#N)C3(CCCC3)C2=O)ccc(C#N)c1Cl [Example 9.6, 2-chloro-4-(1-(4-cyanobutyl)-2,4-dioxo-1,3-diazaspiro[4.4]nonan-3-yl)-3-methylbenzonitrile] |  | 90% | 45 nM |  |  |  |
| Cc1c(N2C(=O)N(CCC#N)C3(CCCC3)C2=O)ccc(C#N)c1Cl [Example 9.8, 2-chloro-4-(1-(2-cyanoethyl)-2,4-dioxo-1,3-diazaspiro[4.4]nonan-3-yl)-3-methylbenzonitrile] |  | 85% | 169 ± 82 nM |  |  |  |
| Cc1c(N2C(=O)N(CCCF)C3(CCCC3)C2=O)ccc(C#N)c1Cl [Example 9.9, 2-chloro-4-(1-(3-fluoropropyl)-2,4-dioxo-1,3-diazaspiro[4.4]nonan-3-yl)-3-methylbenzonitrile] |  |  |  | 27% | 52% |  |
